Assay [1] deals with HPAC pancreatic cancer cell line. In words: In vitro antiproliferative activity, HPAC pancreatic cancer cell line. It is filed as cell-based. The protocol:
(§1) Substituted β-carboline compounds 4 to 38 were tested for antiproliferative activity against HCT116 colon cancer cells and HPAC, Mia-PaCa2 and Panc-1 pancreatic cancer cell lines. Table 1 lists the IC50 values for the substituted β-carbolines.
(§2) Substituted β-carbolines and analog compounds 39 to 57 were tested for antiproliferative activity against HPAC, Mia-PaCa2 and Panc-1 pancreatic cancer cell lines and MCF-7 and MDA-MB-468 breast cancer cell lines. Table 2 lists the IC50 values for the substituted β-carbolines and analogs thereof.

Assay [2] concerns Mia-PaCa2 pancreatic cancer cell line. Nature of the assay: In vitro antiproliferative activity, Mia-PaCa2 pancreatic cancer cell line. It is filed as cell-based. The protocol: as §1, §2
Assay [3] relates to Panc-1 pancreatic cancer cell line. Nature of the assay: In vitro antiproliferative activity, Panc-1 pancreatic cancer cell line. It is filed as cell-based, human. How it is done:
as §2

Assay [4] relates to MCF-7 breast cancer cell line. Nature of the assay: In vitro antiproliferative activity, MCF-7 breast cancer cell line. It is filed as cell-based, human. The protocol: as §2
Assay [5] concerns MDA-MB-468 breast cancer cell line. Nature of the assay: In vitro antiproliferative activity, MDA-MB-468 breast cancer cell line. It is filed as cell-based, human. The conditions noted are these: Table 2. How it is done: as §2
The subject of assay [6] is HCT116, MCF-7, A549, LNCaP, DU145 and PC-3 cancer cells. Nature of the assay: Flow cytometry, cell cycle kinetics of cancer cells. The conditions noted are these: 15 mM in 0.1% DMSO. It is filed as cell-based, human. How it is done:
(§3) Flow cytometry experiments were performed to show the effects of Compound 19, and anticancer drugs Adriamycin or Camptothecin treatment on the cell cycle kinetics of various human cells (FIGS. 8A-8I and 9A-9I), MCF-7 breast cancer cells (FIGS. 5A-5F), A549 lung cancer cells (FIGS. 7A-7I), LNCaP (FIGS. 10A-10I), DU145 (FIGS. 11A-11I) and PC-3 (FIGS. 12A-12I) prostate cancer cells, as well as cultured normal human fibroblasts (FIGS. 6A-6F). The compound or drugs were applied at a concentration of 15 mM in 0.1% DMSO as the vehicle, and cells incubated for the time point indicated in hours (hr). The control samples were treated with vehicle without compound or drug. Red histograms represent cells in the G1/G0 phase (histogram to the left) and cells in the G2/M phases (histogram to the right). The interval between the G1/G) and G2/M histograms is the S-phase of the cell cycle. The subG1/GO histograms (cyan colored) represent cells undergoing apoptosis (programmed cell death).

For assay [7], the system named is cultured normal human fibroblasts. In words: Flow cytometry, cell cycle kinetics of cultured normal human fibroblasts. The conditions noted are these: 15 mM in 0.1% DMSO; flow cytometry cell cycle kinetics. It is filed as cell-based. The protocol: as §3
In assay [8] the test system is HCT116 colon cancer cells. In words: In vitro antiproliferative activity, HCT116 colon cancer cells. It is filed as cell-based. The conditions noted are these: Homo sapiens, HCT-116, Table 1. The protocol:
as §1

Another assay has as its system HCT116 P53 −/−. In words: In vitro antiproliferative activity, HCT116 P53 −/− cells. It is filed as cell-based. The note with it: Homo sapiens, HCT-116, Table 1. The protocol: as §1
The mark [9] stands for this setting: Homo sapiens, MIA PaCa-2, Table 1.
[10] abbreviates: Homo sapiens, MIA PaCa-2, Table 2.

In general, IC50 refers to the concentration that inhibits the measured activity by half.

As to “1-(1,2-Dihydroacenaphth alen-5-yl)-6-methoxy-9H-pyrido[3,4-b]indole [Compound 47]”, the IC50 is 4.79 µM in assay [1] (Table 2); 2.95 µM in assay [2] (Table 2); over 50 µM in assay [3] (Table 2); 6.42 µM in assay [4] (Table 2); 4.47 µM in assay [5].

With `COc1cccc2c1C(=O)c1c(O)c3c(c(O)c1C2=O)C[C@@](O)(C(=O)CO)C[C@@H]3O[C@H]1C[C@H](N)[C@H](O)[C@H](C)O1` [Adriamycin], the “cell cycle arrest mechanism in cancer cells” value in [6] was “primarily G1 phase arrest”. Moreover, the “selectivity between cancer cells and normal (fibroblast) cells” value in assay [7] was “did not show selectivity”.

Turning to `CC[C@@]1(O)C(=O)OCc2c1cc1n(c2=O)Cc2cc3ccccc3nc2-1` [Camptothecin], the “cell cycle arrest mechanism in cancer cells” value in assay [6] is listed as “primarily G1 phase arrest”. For the same compound, the “selectivity between cancer cells and normal (fibroblast) cells” value in assay [7] is “did not show selectivity”.

Turning to `COc1ccc2c(c1)[nH]c1c(-c3ccnc4ccccc34)nccc12` [Compound 10, 7-Methoxy-1-quinolin-4-yl-9H-β-carboline], the figures for the IC50 (in assay [8]; in the assay on HCT116 P53 −/−) were 7 µM and 18.7 µM, respectively.

With `COc1ccc2c(-c3nccc4c3[nH]c3ccc(OC)cc34)cccc2c1` [Compound 35, 6-Methoxy-1-(6-methoxy-naphthalen-1-yl)-9H-β-carboline], the IC50 in assay [8] was 2.22 µM; in assay [1] (Homo sapiens, Table 1) it was 23.1 µM; in assay [2] (setting [9]), 47.2 µM; in assay [3] (Homo sapiens, Table 1) it was over 50 µM.

For `Cc1cccc2c1[nH]c1c(-c3cccc4ccccc34)nccc12` [Compound 37, 8-Methyl-1-naphthalen-1-yl-9H-β-carboline], the IC50 in assay [8] is 2.6 µM; in [1] (Homo sapiens, Table 1) it was 6.39 µM; in [2] (setting [9]) it was 3.54 µM; in [3] (Homo sapiens, Table 1), over 50 µM.

As for `COc1ccc2[nH]c3c(-c4ccc(-c5ccccn5)cc4)nccc3c2c1` [Compound 38, 6-Methoxy-1-(4-pyridin-2-yl-phenyl)-9H-β-carboline], the IC50 in assay [8] was 3 µM; in assay [1] (Homo sapiens, Table 1), 17 µM; in assay [2] (setting [9]), 48.4 µM; in [3] (Homo sapiens, Table 1), 47.4 µM.

Regarding `COc1cccc2c1[nH]c1c(-c3cccc4ccccc34)nccc12` [Compound 39, 8-methoxy-1-(naphthalen-1-yl)-9H-pyrido[3,4-b]indole], the IC50 is 20.5 µM in [1] (Homo sapiens, Table 2); 31.9 µM in assay [2] (setting [10]); 26.5 µM in assay [3] (Homo sapiens, Table 2); over 10 µM in assay [4] (Homo sapiens, MCF7, Table 2); over 10 µM in assay [5] (Homo sapiens).

For the compound `Oc1ccc2[nH]c3c(-c4cccc5ccccc45)nccc3c2c1` [Compound 40, 1-(naphthalen-1-yl)-9H-pyrido[3,4-b]indol-6-ol], the IC50 in [4] (Homo sapiens, MCF7, Table 2) was determined as 34 µM; in assay [5] (Homo sapiens), 10.3 µM.

Turning to `COc1ccc2[nH]c3c(-c4cccc5ccccc45)ncc(-c4ccccc4)c3c2c1` [Compound 41, 6-methoxy-1-(naphthalen-1-yl)-4-phenyl-9H-pyrido[3,4-b]indole], the IC50 was 7.72 µM in [1] (Homo sapiens, Table 2); 3.63 µM in assay [2] (setting [10]); over 10 µM in assay [3] (Homo sapiens, Table 2); over 10 µM in assay [4] (Homo sapiens, MCF7, Table 2); over 10 µM in assay [5] (Homo sapiens).

`CNS(=O)(=O)Cc1ccc2[nH]c3c(-c4cccc5ccccc45)nccc3c2c1` [Compound 42, N-methyl-1-(1-(naphthalen-1-yl)-9H-pyrido[3,4-b]indol-6-yl)methanesulfonamide]: the IC50 came to 3.83 µM in assay [1] (Homo sapiens, Table 2); 0.58 µM in [2] (setting [10]); 6.11 µM in assay [3] (Homo sapiens, Table 2); 2.04 µM in [4] (Homo sapiens, MCF7, Table 2); 1.11 µM in [5] (Homo sapiens).

As to `Cc1cccc2[nH]c3c(-c4cccc5ccccc45)nccc3c12` [Compound 43, 5-methyl-1-(naphthalen-1-yl)-9H-pyrido[3,4-b]indole], the IC50 was found to be 4.03 µM in [1] (Homo sapiens, Table 2); 1.17 µM in assay [2] (setting [10]); 4.56 µM in assay [3] (Homo sapiens, Table 2); 7.83 µM in assay [4] (Homo sapiens, MCF7, Table 2); 1.41 µM in [5] (Homo sapiens).

For `COc1ccc2[nH]c3c(-c4cccc5c(F)cccc45)nccc3c2c1` [Compound 44, 1-(5-fluoronaphthalen-1-yl)-6-methoxy-9H-pyrido[3,4-b]indole], the IC50 in assay [1] (Homo sapiens, Table 2) came out at 2.37 µM; in assay [2] (setting [10]) it was 0.33 µM; in assay [3] (Homo sapiens, Table 2), 2.56 µM; in assay [4] (Homo sapiens, MCF7, Table 2), 6.6 µM; in assay [5] (Homo sapiens) it was 1.2 µM.

Turning to `COc1ccc2[nH]c3c(-c4cccc5c(Br)cccc45)nccc3c2c1` [Compound 45, 1-(5-bromonaphthalen-1-yl)-6-methoxy-9H-pyrido[3,4-b]indole], the IC50 in assay [1] (Homo sapiens, Table 2) amounted to 6.18 µM; in assay [2] (setting [10]), 1.17 µM; in assay [3] (Homo sapiens, Table 2) it was 2.92 µM; in assay [4] (Homo sapiens, MCF7, Table 2), 6.85 µM; in assay [5] (Homo sapiens) it was 1.77 µM.

For the compound `Cc1ccc2[nH]c3c(-c4cccc5c(Br)cccc45)nccc3c2c1` [Compound 46, 1-(5-bromonaphthalen-1-yl)-6-methyl-9H-pyrido[3,4-b]indole], the IC50 in assay [1] (Homo sapiens, Table 2) is over 50 µM; in assay [2] (setting [10]), 41.7 µM; in assay [3] (Homo sapiens, Table 2), over 50 µM; in assay [4] (Homo sapiens, MCF7, Table 2) it was over 50 µM; in assay [5] (Homo sapiens), over 50 µM.

For the compound `Clc1ccc2sc3c(-c4cccc5ccccc45)nccc3c2c1` [Compound 48, 6-Chloro-1-(naphthalen-1-yl)benzo[4,5]thieno[2,3-c]pyridine], the IC50 in assay [1] (Homo sapiens, Table 2) is 50 µM; in assay [2] (setting [10]), 13.5 µM; in assay [3] (Homo sapiens, Table 2), over 50 µM; in assay [4] (Homo sapiens, MCF7, Table 2), 48.6 µM; in assay [5] (Homo sapiens), 6.05 µM.

On to `c1ccc2c(-c3nccc4c3oc3ccccc34)cccc2c1` [Compound 49, 1-(naphthalen-1-yl)benzofuro[2,3-c]pyridine], for which the IC50 in [1] (Homo sapiens, Table 2) was over 50 µM; in assay [2] (setting [10]), 33.6 µM; in [3] (Homo sapiens, Table 2) it was over 50 µM; in assay [4] (Homo sapiens, MCF7, Table 2), over 50 µM; in [5] (Homo sapiens) it was 50 µM.

As for `c1ccc2c(-c3nccc4c3sc3ccccc34)cccc2c1` [Compound 50, 1-(Naphthalen-1-yl)benzo[4,5]thieno[2,3-c]pyridine], the IC50 in assay [1] (Homo sapiens, Table 2) was over 50 µM; in [2] (setting [10]) it was over 50 µM; in assay [3] (Homo sapiens, Table 2) it was over 50 µM; in assay [4] (Homo sapiens, MCF7, Table 2) it was over 50 µM; in [5] (Homo sapiens) it was 14.7 µM.

With `Cc1ccc2[nH]c3c(-c4cccc5ccccc45)nccc3c2c1` [Compound 51, 6-Methyl-1-(naphthalen-1-yl)-9H-pyrido[3,4-b]indole], the IC50 in assay [1] (Homo sapiens, Table 2) is over 50 µM; in assay [2] (setting [10]), 13.1 µM; in [3] (Homo sapiens, Table 2) it was over 50 µM; in assay [4] (Homo sapiens, MCF7, Table 2) it was 6.78 µM; in [5] (Homo sapiens) it was 6.54 µM.

For `FC(F)(F)Oc1ccc2[nH]c3c(-c4cccc5ccccc45)nccc3c2c1` [Compound 52, 1-(Naphthalen-1-yl)-6-(trifluoromethoxy)-9H-pyrido[3,4-b]indole], the IC50 in [1] (Homo sapiens, Table 2) was 35.5 µM; in [2] (setting [10]), 8.63 µM; in [3] (Homo sapiens, Table 2), over 50 µM; in [4] (Homo sapiens, MCF7, Table 2) it was 7.61 µM; in assay [5] (Homo sapiens) it was 4.99 µM.

`N#Cc1ccc2[nH]c3c(-c4cccc5ccccc45)nccc3c2c1` [Compound 53, 1-(Naphthalen-1-yl)-9H-pyrido[3,4-b]indole-6-carbonitrile]: the IC50 in assay [1] (Homo sapiens, Table 2) is 50 µM; in [2] (setting [10]), 40.4 µM; in assay [3] (Homo sapiens, Table 2), over 50 µM; in assay [4] (Homo sapiens, MCF7, Table 2) it was over 50 µM; in assay [5] (Homo sapiens), 30.2 µM.

Consider `Brc1ccc2[nH]c3c(-c4cccc5ccccc45)nccc3c2c1` [Compound 54, 6-Bromo-1-(naphthalen-1-yl)-9H-pyrido[3,4-b]indole], for which the IC50 stood at 10.9 µM in assay [1] (Homo sapiens, Table 2); 26.2 µM in assay [2] (setting [10]); 30.3 µM in [3] (Homo sapiens, Table 2); 11.4 µM in assay [4] (Homo sapiens, MCF7, Table 2); 5.09 µM in assay [5] (Homo sapiens).

With `CCOC(=O)c1cc2c([nH]c3ccc(OC)cc32)c(-c2cccc3ccccc23)n1` [Compound 55, Ethyl-6-methoxy-1-(naphthalen-1-yl)-9H-pyrido[3,4-b]indole-3-carboxylate], the IC50 came out at 12.9 µM in assay [1] (Homo sapiens, Table 2); 17.5 µM in [2] (setting [10]); 23.3 µM in assay [3] (Homo sapiens, Table 2); 17.6 µM in [4] (Homo sapiens, MCF7, Table 2); 5.67 µM in [5] (Homo sapiens).

Regarding `Cn1c2ccccc2c2ccnc(-c3cccc4ccccc34)c21` [Compound 56, 9-Methyl-1-(naphthalen-1-yl)-9H-pyrido[3,4-b]indole], the IC50 in assay [1] (Homo sapiens, Table 2) was 21.2 µM; in assay [2] (setting [10]), 37.4 µM; in assay [3] (Homo sapiens, Table 2), 33.9 µM; in assay [4] (Homo sapiens, MCF7, Table 2) it was 50.8 µM; in [5] (Homo sapiens) it was 14.2 µM.

Turning to `COc1ccc2c(c1)c1ccnc(-c3cccc4ccccc34)c1n2C` [Compound 57, 6-Methoxy-9-methyl-1-(naphthalen-1-yl)-9H-pyrido[3,4-b]indole], the IC50 in assay [1] (Homo sapiens, Table 2) was determined as 44.2 µM; in [2] (setting [10]) it was 34 µM; in [3] (Homo sapiens, Table 2) it was 41.3 µM; in assay [4] (Homo sapiens, MCF7, Table 2), 52 µM; in assay [5] (Homo sapiens), 17.8 µM.

The values above are taken from US8927570B2, “1-naphthyl-or 1-dihydroacenaphthenyl-pyrido[B]indoles and uses thereof in treating cancers” (priority 2009, dated 2015).
